Active and inactive are the calls of the source.
What was measured:
[1] = P. falciparum 3D7-ScDHODH growth inhibitors, dose response, SYBR Green, dry powder samples (AID 1159570); assay type: functional, cell-based;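 note: parasite growth measured after 72 hours of compound exposure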
[2] = HepG2 cell cytotoxicity, dose response, cytotoxicity control, plate reader, dry powder samples (AID 1159569); assay type: functional, cell-based;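 note: inhibitor potency with signal falling toward the positive control level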
[3] = P. falciparum Dd2 growth inhibitors, dose response, SYBR Green, cherry-picked samples (AID 1159567); assay type: functional, cell-based
[4] = P. falciparum Dd2 growth inhibitors, dose response, SYBR Green, dry powder samples (AID 1159566); assay type: functional, cell-based;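 note: potency for growth inhibition with lower SYBR green DNA signal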
[5] = P. falciparum ATP4 D1247Y mutant growth inhibitors, dose response, NITD609-resistant line, SYBR Green, dry powder (AID 1159571); assay type: functional, cell-based;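 note: parasites synchronized at ring stage by sorbitol before testing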
Leucine aminopeptidase = target: T1, Leucine aminopeptidase (Plasmodium falciparum 3D7, UniProt Q8IL11); test: P. falciparum M17LAP inhibitors, primary screen, biochemical, fluorogenic H-Leu-NHMec substrate, 1536-well (AID 1619); assay type: functional
T1 sequence (Q8IL11 whole entry): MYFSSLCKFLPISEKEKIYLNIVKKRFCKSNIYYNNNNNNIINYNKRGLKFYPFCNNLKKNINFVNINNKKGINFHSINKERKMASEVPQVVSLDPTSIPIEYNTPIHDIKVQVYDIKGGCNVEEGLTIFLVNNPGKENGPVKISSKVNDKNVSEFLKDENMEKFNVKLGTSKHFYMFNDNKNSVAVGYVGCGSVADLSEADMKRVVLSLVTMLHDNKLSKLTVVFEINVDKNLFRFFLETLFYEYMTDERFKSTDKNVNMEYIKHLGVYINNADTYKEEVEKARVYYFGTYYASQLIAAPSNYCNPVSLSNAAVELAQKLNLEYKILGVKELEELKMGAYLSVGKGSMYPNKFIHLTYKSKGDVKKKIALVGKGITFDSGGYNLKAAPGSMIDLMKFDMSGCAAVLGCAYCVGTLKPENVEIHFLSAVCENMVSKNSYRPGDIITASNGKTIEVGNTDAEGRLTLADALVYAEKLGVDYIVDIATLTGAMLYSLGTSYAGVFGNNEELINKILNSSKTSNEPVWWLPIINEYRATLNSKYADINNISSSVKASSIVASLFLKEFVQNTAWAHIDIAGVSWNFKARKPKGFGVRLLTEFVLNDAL

[6] = target: Bifunctional protein GlmU (Mycobacterium tuberculosis, UniProt P9WMN3); test: Inhibitors of Mycobacterial Glucosamine-1-phosphate acetyl transferase (GlmU). Secondary screen.; set-up: species or system Mycobacterium tuberculosis H37Rv
Bifunctional protein GlmU, sequence (P9WMN3 whole entry, the tested form may be a part): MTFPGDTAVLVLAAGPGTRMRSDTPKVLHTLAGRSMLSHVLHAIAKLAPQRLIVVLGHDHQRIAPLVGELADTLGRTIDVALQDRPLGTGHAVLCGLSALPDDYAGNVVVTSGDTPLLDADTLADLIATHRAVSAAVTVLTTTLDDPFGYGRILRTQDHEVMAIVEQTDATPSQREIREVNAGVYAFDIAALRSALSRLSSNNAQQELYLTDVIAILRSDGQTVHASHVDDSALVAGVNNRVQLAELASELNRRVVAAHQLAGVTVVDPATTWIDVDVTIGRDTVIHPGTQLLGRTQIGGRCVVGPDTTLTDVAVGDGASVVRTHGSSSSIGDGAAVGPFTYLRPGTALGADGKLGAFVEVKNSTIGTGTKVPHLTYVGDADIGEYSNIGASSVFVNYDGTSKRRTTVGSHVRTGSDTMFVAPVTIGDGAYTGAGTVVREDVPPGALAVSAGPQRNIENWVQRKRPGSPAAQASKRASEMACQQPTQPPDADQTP

[7] = inhibitors of HIV Env-driven cell fusion, dose response, cherry-pick (AID 652057); assay type: functional, cell-based
[8] = ZM109 Env clade C HIV-1 fusion inhibitors, dose response, HeLa effector, CEM target cells, luciferase, cherry-pick (AID 652058); assay type: functional, cell-based
[9] = inhibitors of clade B AD8 Env fusion, dose response, cell-based, cherry-pick (AID 652062); assay type: functional;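 note: luciferase signal from cell-cell fusion driven by HIV-1 clade B AD8 Env; potency is for inhibitors of fusion seen as a drop in luminescence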
[10] = HepG2 cell cytotoxicity, dose response, cytotoxicity control, cherry-picked samples (AID 1159577); assay type: functional, cell-based
[11] = target: G-protein coupled receptor 183 (Homo sapiens, UniProt P32249); test: SAR confirmation of small molecule antagonists of the EBI2 receptor via a luminescent beta-arrestin assa.; assay type: functional
G-protein coupled receptor 183, sequence (P32249 whole entry): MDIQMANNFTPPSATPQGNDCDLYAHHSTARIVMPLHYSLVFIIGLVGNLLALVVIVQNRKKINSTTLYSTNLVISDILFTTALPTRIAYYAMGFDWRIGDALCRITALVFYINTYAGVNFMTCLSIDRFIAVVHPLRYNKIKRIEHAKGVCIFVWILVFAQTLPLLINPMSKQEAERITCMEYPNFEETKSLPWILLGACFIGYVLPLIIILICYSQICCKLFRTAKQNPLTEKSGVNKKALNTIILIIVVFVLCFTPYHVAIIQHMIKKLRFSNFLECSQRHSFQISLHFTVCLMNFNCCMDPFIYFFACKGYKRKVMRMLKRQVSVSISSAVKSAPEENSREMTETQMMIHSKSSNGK

[12] = A549 cell cytotoxicity, dose response, cytotoxicity control, plate reader, cherry-pick, antagonist series (AID 743412); assay type: functional, cell-based
[13] = HepG2 cell cytotoxicity, dose response, cytotoxicity control, plate reader, cherry-pick, antagonist series (AID 743416); assay type: functional, cell-based
[14] = LGR2 antagonists, dose response, cell-based, HEK293, CRE-luciferase reporter, cherry pick, set 2 (AID 743343); assay type: functional;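 note: transfected cells were stimulated with diluted bursicon conditioned medium after compound addition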
[15] = MC4R antagonists, dose response, counter-screen for LGR2 antagonist project, cell-based, plate reader, cherry pick (AID 743444); assay type: functional;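 note: transfected HEK 293 cells stimulated with alpha-MSH peptide; potency of inhibitors of the alpha-MSH evoked signal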
[16] = HEK293 cell cytotoxicity, dose response, cytotoxicity control, plate reader, cherry-picked samples (AID 743446); assay type: functional, cell-based
[17] = P. falciparum Dd2 growth inhibitors, dose response, SYBR Green, dry powder samples, set 9 (AID 1159568); assay type: functional, cell-based

OC[C@@H]1[C@@H](c2ccccc2)C2(CN(CC3CC3)C2)N1Cc1ccc(F)cc1
active: AC50 [1] 1.98 µM | AC50 [2] 43.6 µM | AC50 [3] 0.919 µM | AC50 [4] 1.09 µM | AC50 [5] 1.52 µM

O=C(Nc1ccc(Oc2ccc(C(=O)O)c(C(=O)O)c2)cc1)c1cccs1
active: IC50 (Leucine aminopeptidase) 30.7 µM | IC50 [6] 97.3 µM

O=C(Nc1ccc(Cl)c(Cl)c1)N[C@@H]1CC[C@@H](CCn2cc(C3CCCCC3)nn2)O[C@@H]1CO
active: AC50 [7] 46.9 µM | AC50 [8] 0.538 µM | AC50 [9] 57.9 µM | AC50 [3] 12.4 µM | AC50 [10] 17.8 µM

O=C(/C=C/c1ccc(Br)cc1)N1CCN(Cc2ccccc2F)CC1
active: IC50 [11] 0.0287 µM

COc1ccccc1C#Cc1ccc([C@H]2[C@@H](C#N)N(C(=O)C3CCCCC3)[C@H]2CO)cc1
active: AC50 [12] 21.3 µM | AC50 [13] 30.5 µM | AC50 [14] 11.3 µM | AC50 [15] 7.87 µM | AC50 [16] 14.9 µM | AC50 [1] 0.862 µM | AC50 [2] 29.8 µM | AC50 [17] 1.17 µM | AC50 [3] 1.19 µM | AC50 [4] 0.349 µM | AC50 [5] 0.443 µM

From ChEMBL document CHEMBL1201862, “PubChem BioAssay data set” (2004)
